Measurements published in patent publication US6462055B2, “Alpha-methylbenzyl-containing thiourea inhibitors of herpes viruses containing a phenylenediamine group” (Wyeth, priority 1998, dated 2002).
≈ marks a conversion by molar mass, not a printed value.

How the values were obtained:
[1] = tested on: HCMV recombinant mutant virus (RV145); experiment: microbe, parasite or virus in culture; format: cell-based, human cytomegalovirus; details: HCMV
Description: Microtiter plate assay. Ninety-six well plate cultures of human foreskin fibroblasts are infected in the presence of inhibitor compound with a HCMV recombinant mutant virus whose genome contains the prokaryotic beta-glucuronidase gene (Jefferson, R. A., S. M. Burgess, and D. Hirsh. 1986. Beta-glucuronidase from Escherichia coli as a gene fusion marker. Proc. Natl. Acad. Sci. USA 83:8447-8451) whose expression is controlled by a viral promoter. An example of such a virus is RV145 (Jones, T. R., V. P. Muzithras, and Y. Gluzman. 1991. Replacement mutagenesis of the human cytomegalovirus genome: US10 and US11 gene products are nonessential. J. Virol. 65:5860-5872). Since it is under the control of a viral promoter, beta-glucuronidase expression is an indirect indicator of growth and replication of HCMV in this assay. At 96 hours post-infection, the infected cell lysates are prepared (using 50 mM sodium phosphate [pH7.0]containing 0.1% Triton X-100 and 0.1% sarkosyl) and assayed for beta-glucuronidase activity using a substrate for the enzyme which when cleaved yields either a product which can be measured […] in a spectrophotometer or fluorescently in a microfluorimeter. Examples of such substrates are p-nitrophenyl-beta-D-glucuronide and methylumbelliferylglucuronide, respectively. The presence of an antiviral compound is indicated by the reduced expression of the HCMV genome resident beta-glucuronidase gene, compared to the absence of inhibitor. […] Data from this assay generated using varying amounts of inhibitor compound is also used to estimate the IC50 of an inhibitor compound.

HSV-1 = experiment: HSV Antiviral (ELISA) Assay in Vero cells; format: cell-based, herpes simplex virus type 1; details: HSV-1, Vero cells
Outline: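 Viral replication was quantified by cell-fixed ELISA for HSV glycoprotein D, using a β-galactosidase reporter and fluorogenic umbelliferyl substrate, about 24 h after HSV-1 infection (MOI 0.006) of Vero cells. Compounds, at several concentrations, were added 30 min pre-infection. IC50 was derived from fluorescence relative to the compound-free signal.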

VZV strain Ellen = experiment: VZV Antiviral (ELISA) Assay in human foreskin fibroblast cells; format: cell-based, varicella-zoster virus
Outline: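 Antiviral IC50 is derived by comparing fluorescence with and without compound after a three-day culture of VZV-infected plus uninfected foreskin fibroblasts. Replication is quantified by ELISA against glycoprotein II, using a β-galactosidase secondary and methyl umbelliferyl-β-D-galactoside.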

SMILES | IC50 ug/ml HCMV [1] | IC50 (ug/ml) HSV (HSV-1) | IC50 (ug/ml) VZV (VZV strain Ellen) | % inhibition 10 ug/ml VZV (VZV strain Ellen)
COc1cc(OC)c(NC(=S)Nc2ccc(NC(=O)c3ccccc3NC(C)=O)cc2)cc1Cl [Example 189] | >10 µg/mL | 2.5 µg/mL (≈ 5.01 µM) | >10 µg/mL | 59%
COc1cc(OC)c(NC(=S)Nc2ccc(NC(=O)c3ccccc3N[S+](C)[O-])cc2)cc1Cl (centres unmarked) [Example 191] | >10 µg/mL | 8 µg/mL (≈ 15.4 µM) | >10 µg/mL | 22%
COc1cc(OC)c(NC(=S)Nc2ccc(NC(=O)c3ccc(F)c(F)c3F)cc2)cc1Cl [Example 192] | >10 µg/mL | 0.5 µg/mL (≈ 1.01 µM) | >10 µg/mL | 14%
COc1cc(OC)c(NC(=S)Nc2ccc(NC(=O)c3c(F)c(F)c(F)c(F)c3F)cc2)cc1Cl [Example 193] | >10 µg/mL | 1.5 µg/mL (≈ 2.82 µM) | 3.8 µg/mL (≈ 7.14 µM) | 106%
COc1cc(OC)c(NC(=S)Nc2ccc(NC(=O)c3ccccc3SC)cc2)cc1Cl [Example 194] | >10 µg/mL | 1.5 µg/mL (≈ 3.07 µM) | >10 µg/mL | 45%
COc1cc(OC)c(NC(=S)Nc2ccc(NC(=O)c3cccc(C(=O)O)c3)cc2)cc1Cl [Example 209] | >50 µg/mL | >50 µg/mL | >10 µg/mL | 22%
COc1cc(OC)c(NC(=S)Nc2ccc(NC(=O)c3cccc(OCc4ccccc4)c3)cc2)cc1Cl [Example 210] | >10 µg/mL | 5 µg/mL (≈ 9.12 µM) | >10 µg/mL | 14%
CCCCOc1cccc(C(=O)Nc2ccc(NC(=S)Nc3cc(Cl)c(OC)cc3OC)cc2)c1 [Example 219] | >10 µg/mL | 2.5 µg/mL (≈ 4.86 µM) | >10 µg/mL | 30%
COc1cc(OC)c(NC(=S)Nc2ccc(NC(=O)c3ccccc3[S+](C)[O-])cc2)cc1Cl (centres unmarked) [Example 220] | >10 µg/mL | >10 µg/mL | >10 µg/mL | 35%
CCOC(=O)COc1cccc(C(=O)Nc2ccc(NC(=S)Nc3cc(Cl)c(OC)cc3OC)cc2)c1 [Example 221] | >10 µg/mL | >10 µg/mL | >10 µg/mL | 17%
COc1cc(OC)c(NC(=S)Nc2ccc(NC(=O)c3cccc(OCC(=O)O)c3)cc2)cc1Cl [Example 222] | >50 µg/mL | >50 µg/mL | >10 µg/mL | 17%
Cc1ccc(NC(=S)Nc2ccc(NC(=O)c3ccccc3F)cc2)cc1Cl [Example 231] | >10 µg/mL | 0.5 µg/mL (≈ 1.21 µM) | >10 µg/mL | 11%
COc1cccc(C(=O)Nc2ccc(NC(=S)Nc3ccc(C)c(Cl)c3)cc2)c1 [Example 232] | >10 µg/mL | 1 µg/mL (≈ 2.35 µM) | >10 µg/mL | 21%
Cc1ccc(NC(=S)Nc2ccc(NC(=O)c3ccccc3C)cc2)cc1Cl [Example 234] | 1 µg/mL (≈ 2.44 µM) | 0.2 µg/mL (≈ 0.488 µM) | >10 µg/mL | 68%
Cc1ccc(NC(=S)Nc2ccc(NC(=O)c3c(F)cccc3F)cc2)cc1Cl [Example 235] | >10 µg/mL | 0.2 µg/mL (≈ 0.463 µM) | >10 µg/mL | 50%
CN(c1ccc(NC(=S)Nc2ccc(NC(=O)c3ccccc3F)cc2)cc1Cl)C1CCCCC1 [Example 238] | >10 µg/mL | >10 µg/mL | >10 µg/mL | 38%
O=C(Nc1ccc(NC(=S)Nc2ccc(Cl)c(C(F)(F)F)c2)cc1)c1ccccc1F [Example 244] | >10 µg/mL | >10 µg/mL | >10 µg/mL | 18%
